Assay results from PMC11509018, “Evaluation of the Role of Tanshinone I in an In Vitro System of Charcot-Marie-Tooth Disease Type 2N” (International Journal of Molecular Sciences, 2024).
Positions count from the first letter of the chain named.

Columns and labels:
AlaRS^E337K = biological target: T1, AlaRS^E337K (Homo sapiens, UniProt P49588, E337K); test: Biolayer interferometry (BLI); format: binding; details: immobilized AlaRS^E337K, mean ± SD, triplicate
T1 construct: made in house; host or cells: E. coli BL21 (DE3), pET-21a
T1 sequence (P49588 1-968 E337K): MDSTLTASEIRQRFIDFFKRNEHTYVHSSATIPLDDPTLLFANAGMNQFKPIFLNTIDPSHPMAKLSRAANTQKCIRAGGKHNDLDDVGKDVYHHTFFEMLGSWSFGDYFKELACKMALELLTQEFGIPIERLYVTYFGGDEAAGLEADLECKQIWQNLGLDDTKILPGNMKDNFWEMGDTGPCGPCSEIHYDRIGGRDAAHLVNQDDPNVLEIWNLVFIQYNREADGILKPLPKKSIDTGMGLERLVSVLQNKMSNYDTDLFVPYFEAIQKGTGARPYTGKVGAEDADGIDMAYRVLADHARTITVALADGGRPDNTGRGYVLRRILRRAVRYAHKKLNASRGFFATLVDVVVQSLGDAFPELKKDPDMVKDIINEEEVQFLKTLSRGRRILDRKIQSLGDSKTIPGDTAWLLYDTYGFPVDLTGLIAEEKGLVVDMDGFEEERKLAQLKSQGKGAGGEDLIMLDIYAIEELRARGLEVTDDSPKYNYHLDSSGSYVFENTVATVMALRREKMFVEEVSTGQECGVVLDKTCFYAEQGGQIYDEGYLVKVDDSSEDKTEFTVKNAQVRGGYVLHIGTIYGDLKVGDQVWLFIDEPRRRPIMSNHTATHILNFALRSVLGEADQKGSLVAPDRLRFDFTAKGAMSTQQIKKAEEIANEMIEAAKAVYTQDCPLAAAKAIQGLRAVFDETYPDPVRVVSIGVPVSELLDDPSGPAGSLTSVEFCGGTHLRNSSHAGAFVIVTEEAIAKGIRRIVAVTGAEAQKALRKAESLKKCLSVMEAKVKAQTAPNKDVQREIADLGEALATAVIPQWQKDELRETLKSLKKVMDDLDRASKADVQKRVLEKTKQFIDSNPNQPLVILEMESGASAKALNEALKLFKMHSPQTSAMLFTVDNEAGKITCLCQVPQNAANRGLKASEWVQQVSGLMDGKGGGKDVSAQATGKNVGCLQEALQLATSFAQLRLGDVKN
Method: (§1) Furthermore, we examined the interaction of Tanshinone I with additional AlaRS CMT mutants capable of binding to Nrp1 and causing conformational changes by BLI and proteolysis assays on additional related mutants. […] To further quantify the binding of small molecules to mutant proteins, binding experiments with AlaRS^R329H proteins and small molecules were conducted using an Octet R8 system (ForteBio, Fremont, CA, USA). Purified His-tagged AlaRS^R329H proteins (500 μg/mL) were captured on Ni-NTA biosensors (ForteBio, Fremont, CA, USA), achieving a saturation response of 4–5 nm after 300 s. The biosensors were then transferred to Octet buffer (PBS with 0.01% Tween 20) for 180 s to remove loosely bound, nonspecific proteins and to establish a stable baseline. Following this, the sensors were immersed in diluted Tanshinone I (2.5–100 μM in assay buffer) for 120 s to record the association signal, and then transferred back into Octet buffer to monitor the dissociation signal for 120 s. Reference wells containing buffer instead of Tanshinone I were included to correct for baseline shifts. Additionally, a parallel set of Ni-NTA sensors in buffer served as negative reference controls to account for nonspecific binding of the compounds to the biosensor surface. The data were processed using a double reference subtraction protocol to eliminate nonspecific signals, background noise, and signal drifts caused by biosensor variability. All assays were performed in 96-well black plates with a total volume of 200 μL per well at 30 °C. Data analysis, including correction and curve fitting, was carried out using Octet® Analysis Studio 12.2.2.26. The experiment was repeated three times.

AlaRS^N71Y = biological target: T2, AlaRS^N71Y (Homo sapiens, UniProt P49588, N71Y); test: Biolayer interferometry (BLI); format: binding; details: immobilized AlaRS^N71Y, mean ± SD, triplicate
T2 construct: made in house; host or cells: E. coli BL21 (DE3), pET-21a
T2 sequence (P49588 1-968 N71Y): T1 sequence (P49588 1-968 E337K) with N71Y, K337E
Method: as §1

**Q.** Which results are given for `Cc1coc2c1C(=O)C(=O)c1c-2ccc2c(C)cccc12` [Tanshinone I]?
**A.** Kd (AlaRS^E337K): 19.2 ± 4.2 µM; Kd (AlaRS^N71Y): 37.8 ± 6.2 µM
